Experimental data: PMC9331544, “Molecular Physicochemical Properties of Selected Pesticides as Predictive Factors for Oxidative Stress and Apoptosis-Dependent Cell Death in Caco-2 and HepG2 Cells” (International Journal of Molecular Sciences, 2022)
Read-outs that look alike come from different tables or passages of the source.

Experiments:
Caco-2 cells [1] = system: Caco-2 cells
Source text: (§1) Given the role of mitochondria in both oxidative stress and cell death (apoptosis), we evaluated the mitochondrial membrane potential (MMP) using the JC-1 probe (see methods for details). This probe accumulates in the mitochondria in the form of J-aggregates when in normal mitochondrial conditions (polarized) and presents red fluorescence. By contrast, in unhealthy cells, when depolarization occurs, JC-1 enters the mitochondria in lower concentrations forming monomers inducing a fluorescence shift to green fluorescence, thus the loss of MMP is observed through flow cytometry as a reduction in red (FL2) and an increase in green (FL1) fluorescence, or as a reduction in red/green (FL2/FL1) fluorescence ratio [45, 46].
(§2) Pesticide-induced oxidative stress and apoptosis/necrosis events were analysed by flow cytometry. For this, one colour and two-colour flow cytometry assays were performed, using a BD Accuri™ C6 cytometer (Franklin Lakes, NJ, USA) equipment for data acquisition. Each assay was performed at least in triplicate (n = 3) and 5000 gated events were collected from each sample. Data analysis was performed using BD Accuri™ C6 Software, version 1.0.264.21 supplied by Becton Dickinson (Franklin Lakes, NJ, USA).
(§3) Caco-2 and HepG2 cells (handled as described in Section 3.2.1) were seeded in 12-well microplates (at 5 × 10^4 cells/mL density; 750 µL/well), and allowed to adhere and stabilize for 48 h in the incubator. […] Negative control cells (non-exposed cells) were included in each assay. After a 24 h incubation with test solutions, cells were washed with phosphate buffer saline (PBS) solution and then detached from the microplates (as in Section 3.2.1) and placed in centrifuge tubes and centrifuged (5 min, 3000 rpm, bench micro-centrifuge). After eliminating the supernatant, cells were washed in PBS solution through another centrifuge cycle. Then cells were divided before being incubated with the specific markers to assess oxidative stress markers and cell apoptosis/necrosis.
(§4) Mitochondrial membrane potential was analysed using JC-1 probe following the procedures as described by the manufacturer. Caco-2 and HepG2 cells suspended in PBS were centrifuged (5 min, 3000 rpm, bench micro-centrifuge), the supernatant was removed and 200 μL of JC-1 solution (2 μM; diluted in FBS-free culture media) was added to each sample. The samples were incubated for 20 min at 37 °C (in a CO2 incubator) and then analysed by flow cytometry. Negative control, non-exposed, and positive control cells exposed to the protonophore FCCP (5 μM; carbonyl cyanide p-trifluoromethoxyphenylhydrazone) were performed in each set of experiments.

HepG2 cells [2] = settings: for HepG2 FL2/FL1 ratio: mean ± SD
Source text: as §1, §2, §3, §4

Caco-2 cells [3] = experiment: Intracellular ROS content, DCFDA, flow cytometry; type: cell-based, human; settings: for change in ROS content vs control (in words): Caco-2, 24 h, tested concentrations
Experimental: (§5) To assess pesticides-induced oxidative stress, the intracellular content in reactive oxygen species (ROS), content in glutathione (GSH), and lipid peroxidation was quantified by flow cytometry, following the methods described by Domínguez-Perles, et al. and Queiroz, et al.. Briefly, to assess ROS content, cells re-suspended in PBS (from Section 3.3.1) were centrifuged (5 min, 3000 rpm, bench micro-centrifuge) and, after eliminating the supernatant, 200 μL of 10 µM DCFDA solution (prepared in FBS-free DMEM) was added to each sample. After a 45 min incubation at 37 °C (in the dark, in an incubator), cells were centrifuged to remove excess of probe and re-suspended in PBS. Finally, 5 μL of propidium iodide (PI; 50 μg/mL) was added to each sample 3 min before flow cytometry acquisition.

HepG2 cells [4] = experiment: Intracellular ROS content, DCFDA, flow cytometry; type: cell-based, human; settings: for change in ROS content vs control (in words): HepG2, 24 h, tested concentrations
Experimental: as §5

HepG2 cells [5] = settings: occupational concentrations; ref [29]; cited from earlier work
Caco-2 cells [6] = experiment: Alamar Blue cell viability/cytotoxicity assay; type: cell-based, human; settings: mean ± SD (n = 4), read-out: IC50 of pesticide-induced cytotoxicity
Experimental: (§6) In this study, to assess the cytotoxic activity of GLY, IMD, and IMZ, human epithelial colorectal adenocarcinoma (Caco-2), cell lines service (CLS), (Eppelheim, Germany) and human hepatocellular carcinoma (HepG2) (ATCC, Rockville, Maryland, USA) cells were used. Cells were cultured in complete culture media (Dulbecco’s Modified Eagle Media (DMEM), supplemented with 1 mM L-glutamine, 10% (v/v) foetal bovine serum (FBS), and antibiotics (penicillin at 100 U/mL, and streptomycin at 100 μg/mL)) and maintained at 5% CO2/95% air; 37 °C, controlled humidity, in an incubator. Cells were grown in T25 culture flasks to near confluence. Then, these adherent cells were treated with trypsin (trypsin-EDTA), for detachment and subculture, which was stopped using complete culture medium (1:1, trypsin:culture media) as soon as cells were detached (about 6 and 8 minutes of trypsin treatment for HepG2 and Caco-2 cells, respectively). Detached cells were gently re-suspended with a Pasteur pipette and then a sample was counted using an automated cell counter (TC10™, BIORAD, Portugal). A suspension of cells in fresh culture media, at 5 × 10^4 cells/mL was prepared to seed into 96-well microplates (100 µL/well). After seeding, cells were placed in the incubator for 48 h (to adhere and stabilize) before being used, for other details see [66, 67].
(§7) Cell viability was assessed using the Alamar Blue® (AB) assay, after exposure to the pesticides. In summary, cells seeded into 96-well microplates were subjected to various concentrations of the pesticides (GLY: 0–1 mM; IMD: 0–1 mM; IMZ: 0–0.3 mM). To prepare the test solutions, the appropriate volume of the pesticide stock solution was diluted in FBS-free culture media just before its application to the cells. Stock solution of GLY was prepared in water (at 40 mM), and stock solutions of IMD and IMZ were prepared in DMSO (at 20 mM). After 24 h or 48 h of exposure, the test solutions were removed and the Alamar Blue solution (100 µL/well; 10% (v/v) in FBS-free medium) was immediately added to the cells, followed by a further 5 h incubation. The absorbance was then read at 570 and 620 nm using a microplate reader (Multiskan EX; MTX Lab Systems, Inc., Bradenton, FL, USA) and the percentage of the AB reduction was calculated according to the manufacturer’s instructions, as described before. Cell viability, at each condition, was calculated and expressed as percentage of control cells (non-exposed cells).
(§8) The concentrations needed to reduce cell viability by 50% (IC50) were calculated from three independent experiments (each one performed in quadruplicates), as described.

[7] = Alamar Blue cell viability/cytotoxicity assay; type: cell-based, human; settings: human
Experimental: as §6, §7, §8

HepG2 cells [8] = experiment: Alamar Blue cell viability/cytotoxicity assay; type: cell-based, human; settings: mean ± SD (n = 4), read-out: IC50 of pesticide-induced cytotoxicity
Experimental: as §6, §7, §8

Caco-2 cells [9] = experiment: Lipid peroxidation, DHPE-FITC probe, flow cytometry; type: cell-based, human
Experimental: (§9) Lipid peroxidation was evaluated using the DHPE-FITC probe. Cells re-suspended in PBS (see Section 3.3.1) were incubated with 20 μM DHPE-FITC, for 20 min in the dark at room temperature (as describe).

HepG2 cells [10] = experiment: as above; type: cell-based, human
Experimental: as §9

Caco-2 cells [11] = experiment: Apoptosis/necrosis, Annexin-V-FITC/PI double staining, flow cytometry; type: cell-based, human; settings: Caco-2, 24 h, tested concentrations; listed as GLY
Experimental: (§10) The samples where then incubated for 20 min at room temperature. After this period, 5 μL of propidium iodide (PI; at 50 μg/mL) solution were added to each sample 3 min before acquisition.

HepG2 cells [12] = experiment: as above; type: cell-based, human; settings: HepG2, 24 h, tested concentrations; listed as GLY
Experimental: as §10

Caco-2 cells [13] = experiment: Glutathione (GSH) content, Mercury Orange, flow cytometry; type: cell-based, human; settings: Caco-2, 24 h, tested concentrations
Experimental: (§11) To assess GSH content, cells re-suspended in PBS (see Section 3.3.1) were incubated with 40 μM Mercury Orange (1-(4-chloromercuryphenyl-azo-2-naphtol) for 5 min (in the dark, room temperature), as described by du Plessis, et al..

HepG2 cells [14] = experiment: as above; type: cell-based, human; settings: HepG2, 24 h, tested concentrations
Experimental: as §11

HepG2 cells [15] = system: HepG2 cells; parameters: method as in PMID 34635006; settings: HepG2, 500 μM, 24 h; ref [31]; cited from earlier work
[16] = system: L-929 cells (fibroblast cell line); parameters: method as in PMID 33177931; settings: 500 μM, ref [33]; cited from earlier work
[17] = ref [47],[48],[49],[50]; cited from earlier work
[18] = HepG2, FCCP positive control (5 μM)
[19] = IC50 of pesticide-induced cytotoxicity

N#CC(C#N)=NNc1ccc(OC(F)(F)F)cc1 [FCCP, carbonyl cyanide p-trifluoromethoxyphenylhydrazone, reference compound]
FL2/FL1 ratio reduction (% of control) (Caco-2 cells [1]; Caco-2, FCCP positive control (5 μM)): 93.04±0.93 % of control
Caco-2 FL2/FL1 ratio (Caco-2 cells [1]; Caco-2, FCCP positive control (5 μM), mean ± SD): 0.06±0.02
FL2/FL1 ratio reduction (% of control) (HepG2 cells [2]; [18]): 79.87±4.12 % of control
HepG2 FL2/FL1 ratio (HepG2 cells [2]; [18]): 0.04±0.01

O=C(O)CNCP(=O)(O)O [Glyphosate, N-phosphonomethyl-glycine]
change in ROS content vs control (in words) (Caco-2 cells [3]; listed as GLY): control-like ROS levels
change in ROS content vs control (in words) (HepG2 cells [4]; listed as GLY): control-like ROS levels
HepG2 cell viability (in words) (HepG2 cells [5]): no reduction in HepG2 cell viability
IC50 (Caco-2 cells [6]; Caco-2, 24 h exposure): > 1000 µM
IC50 (Caco-2 cells [6]; Caco-2, 48 h exposure): > 1000 µM
IC50 at 24 h ([7]; Caco-2, 24 h, read-out: IC50 (cytotoxicity)): > 1000 µM
IC50 at 48 h ([7]; Caco-2, 48 h, read-out: IC50 (cytotoxicity)): > 1000 µM
IC50 at 24 h ([7]; HepG2, 24 h, read-out: IC50 (cytotoxicity)): > 1000 µM
IC50 at 48 h ([7]; HepG2, 48 h, read-out: IC50 (cytotoxicity)): > 1000 µM
IC50 (HepG2 cells [8]; HepG2, 24 h exposure): > 1000 µM
IC50 (HepG2 cells [8]; HepG2, 48 h exposure): > 1000 µM
lipid peroxidation (LP) vs control (in words) (Caco-2 cells [9]; Caco-2, 24 h, tested concentrations): did not produce significant LP
lipid peroxidation (LP) vs control (in words) (HepG2 cells [10]; HepG2, 24 h, tested concentrations): did not produce significant LP
apoptosis/necrosis induction (in words) (Caco-2 cells [11]): did not produce significant changes
apoptosis/necrosis induction (in words) (HepG2 cells [12]): did not induce significant changes on cell population distribution
change in GSH content vs control (in words) (Caco-2 cells [13]): did not show GSH levels different from control cells
change in GSH content vs control (in words) (HepG2 cells [14]): initial decrease in GSH content
change in mitochondrial membrane potential (in words) (Caco-2 cells [1]; Caco-2, 24 h, tested concentrations, listed as GLY): did not induce significant changes on MMP

O=[N+]([O-])NC1=NCCN1Cc1ccc(Cl)nc1 [Imidacloprid, imidacloprid]
increase in ROS content compared with control (Caco-2 cells [3]; Caco-2, 750 μM, 24 h): 1.42 fold
change in ROS content vs control (in words) (Caco-2 cells [3]; listed as IMD): significant (p < 0.05) increase in ROS content
increase in ROS content compared with control (HepG2 cells [4]; HepG2, 500 μM, 24 h): 1.59 fold
change in ROS content vs control (in words) (HepG2 cells [4]; listed as IMD): significant (p < 0.05) increase in ROS content
ROS content (in words) (HepG2 cells [15]): doubled ROS content
IC50 at 24 h [7]: 624 ± 24 µM
IC50 at 48 h [7]: 620 ± 11 µM
IC50 at 24 h [7, 19]: > 1000 µM
IC50 at 48 h [7, 19]: 832 ± 30 µM
LDH release increase [16]: 50%
lipid peroxidation (LP) vs control (in words) (Caco-2 cells [9]): induced significant LP
lipid peroxidation (LP) vs control (in words) (HepG2 cells [10]): not statistically significant
change in GSH content vs control (in words) (Caco-2 cells [13]): increased GSH levels
change in GSH content vs control (in words) (HepG2 cells [14]): increased GSH levels
FL2/FL1 ratio reduction (% of control) (Caco-2 cells [1]; Caco-2, 500 μM, 24 h): 21.36±0.05 % of control
FL2/FL1 ratio reduction (% of control) (Caco-2 cells [1]; Caco-2, 750 μM, 24 h): 17.70±2.49 % of control
change in mitochondrial membrane potential (in words) (HepG2 cells [2]): Depolarized MMP
FL2/FL1 ratio reduction (% of control) (HepG2 cells [2]; HepG2, 100 μM, 24 h): 23.79±1.79 % of control
HepG2 FL2/FL1 ratio (HepG2 cells [2]; HepG2, 100 μM, 24 h): 0.17±0.01
FL2/FL1 ratio reduction (% of control) (HepG2 cells [2]; HepG2, 250 μM, 24 h): 27.49±1.48 % of control
HepG2 FL2/FL1 ratio (HepG2 cells [2]; HepG2, 250 μM, 24 h): 0.16±0.02
FL2/FL1 ratio reduction (% of control) (HepG2 cells [2]; HepG2, 500 μM, 24 h): 19.93±1.29 % of control
HepG2 FL2/FL1 ratio (HepG2 cells [2]; HepG2, 500 μM, 24 h): 0.18±0.01
H-bond (donor count) [17]: 1
H-donor (acceptor count) [17]: 4
